The results in this text go back to patent US8871753B2, “Macrocyclic compounds and their use as kinase inhibitors” (Incyte Corporation, priority 2008, dated 2014).

Structures are written as SMILES. Where a name gives a salt, the structure may show the parent alone.

What all share (assay type): biochemical
For assay [1], the target named is T1, human JAK1 (a.a. 837-1142) (Homo sapiens, UniProt P23458).
T1 construct: human JAK1 (a.a. 837-1142); His tag (N); made in house; host or cells: insect cells (baculovirus)
Kind of assay: In vitro JAK kinase assay (HTRF, phosphorylation of a biotinylated peptide), JAK1. Conditions: Table D1; read-out: JAK1 IC50. The gist of the method:
(§1)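 Phosphorylation of a biotinylated peptide by the JAK kinase domain, detected by HTRF with Eu-Py20 and SA-APC. ATP was 90 μM for JAK1, 30 μM for JAK2 and 3 μM for JAK3. Reactions ran 1 h at room temperature and were stopped with EDTA, followed by 40 min antibody binding.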
In general terms: In TR-FRET formats the signal depends on donor and acceptor labels being close together.

Assay [2] addresses T2, human JAK2 (a.a. 828-1132) (Homo sapiens, UniProt O60674).
T2 construct: JAK2 (a.a. 828-1132); His tag (N); made in house; host or cells: insect cells (baculovirus)
Kind of assay: In vitro JAK kinase assay (HTRF, phosphorylation of a biotinylated peptide), JAK2. Conditions: Table D1. The gist of the method:
as §1

The target of assay [3] is T3, human JAK3 (a.a. 781-1124) (Homo sapiens, UniProt P52333).
T3 construct: JAK3 (a.a. 781-1124); His tag (N); made in house; host or cells: insect cells (baculovirus)
In words: In vitro JAK kinase assay (HTRF, phosphorylation of a biotinylated peptide), JAK3. Conditions: Table D1. The gist of the method: as §1

The target of assay [4] is TYK2 (Homo sapiens, UniProt P29597). In words: TYK2 kinase inhibition (Table A1). To be noted: Table D1.
Assay [5] has as its target T4, Recombinant Human Anaplastic Lymphoma Kinase (Homo sapiens, UniProt Q9UM73).
T4 construct: purchased Invitrogen, Carlsbad, Calif
Kind of assay: ALK HTRF kinase assay. Conditions: Table D1; 90 μM ATP. The gist of the method:
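TR-FRET read-out (Eu anti-pTyr antibody + streptavidin-APC) of biotin-peptide phosphorylation by recombinant human enzyme; IC50 by sigmoidal fit with top/bottom baselines and Hill slope.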

T2 sequence (O60674 828-1132): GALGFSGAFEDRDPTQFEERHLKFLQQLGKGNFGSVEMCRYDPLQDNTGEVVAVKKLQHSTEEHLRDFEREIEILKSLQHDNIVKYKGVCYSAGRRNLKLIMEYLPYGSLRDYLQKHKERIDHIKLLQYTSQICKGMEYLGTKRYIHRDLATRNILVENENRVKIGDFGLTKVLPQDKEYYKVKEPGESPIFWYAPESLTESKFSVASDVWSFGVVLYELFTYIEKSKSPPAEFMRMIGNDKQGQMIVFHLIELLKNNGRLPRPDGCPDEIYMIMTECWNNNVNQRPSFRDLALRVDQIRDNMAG
T4 sequence (Q9UM73 19-1620): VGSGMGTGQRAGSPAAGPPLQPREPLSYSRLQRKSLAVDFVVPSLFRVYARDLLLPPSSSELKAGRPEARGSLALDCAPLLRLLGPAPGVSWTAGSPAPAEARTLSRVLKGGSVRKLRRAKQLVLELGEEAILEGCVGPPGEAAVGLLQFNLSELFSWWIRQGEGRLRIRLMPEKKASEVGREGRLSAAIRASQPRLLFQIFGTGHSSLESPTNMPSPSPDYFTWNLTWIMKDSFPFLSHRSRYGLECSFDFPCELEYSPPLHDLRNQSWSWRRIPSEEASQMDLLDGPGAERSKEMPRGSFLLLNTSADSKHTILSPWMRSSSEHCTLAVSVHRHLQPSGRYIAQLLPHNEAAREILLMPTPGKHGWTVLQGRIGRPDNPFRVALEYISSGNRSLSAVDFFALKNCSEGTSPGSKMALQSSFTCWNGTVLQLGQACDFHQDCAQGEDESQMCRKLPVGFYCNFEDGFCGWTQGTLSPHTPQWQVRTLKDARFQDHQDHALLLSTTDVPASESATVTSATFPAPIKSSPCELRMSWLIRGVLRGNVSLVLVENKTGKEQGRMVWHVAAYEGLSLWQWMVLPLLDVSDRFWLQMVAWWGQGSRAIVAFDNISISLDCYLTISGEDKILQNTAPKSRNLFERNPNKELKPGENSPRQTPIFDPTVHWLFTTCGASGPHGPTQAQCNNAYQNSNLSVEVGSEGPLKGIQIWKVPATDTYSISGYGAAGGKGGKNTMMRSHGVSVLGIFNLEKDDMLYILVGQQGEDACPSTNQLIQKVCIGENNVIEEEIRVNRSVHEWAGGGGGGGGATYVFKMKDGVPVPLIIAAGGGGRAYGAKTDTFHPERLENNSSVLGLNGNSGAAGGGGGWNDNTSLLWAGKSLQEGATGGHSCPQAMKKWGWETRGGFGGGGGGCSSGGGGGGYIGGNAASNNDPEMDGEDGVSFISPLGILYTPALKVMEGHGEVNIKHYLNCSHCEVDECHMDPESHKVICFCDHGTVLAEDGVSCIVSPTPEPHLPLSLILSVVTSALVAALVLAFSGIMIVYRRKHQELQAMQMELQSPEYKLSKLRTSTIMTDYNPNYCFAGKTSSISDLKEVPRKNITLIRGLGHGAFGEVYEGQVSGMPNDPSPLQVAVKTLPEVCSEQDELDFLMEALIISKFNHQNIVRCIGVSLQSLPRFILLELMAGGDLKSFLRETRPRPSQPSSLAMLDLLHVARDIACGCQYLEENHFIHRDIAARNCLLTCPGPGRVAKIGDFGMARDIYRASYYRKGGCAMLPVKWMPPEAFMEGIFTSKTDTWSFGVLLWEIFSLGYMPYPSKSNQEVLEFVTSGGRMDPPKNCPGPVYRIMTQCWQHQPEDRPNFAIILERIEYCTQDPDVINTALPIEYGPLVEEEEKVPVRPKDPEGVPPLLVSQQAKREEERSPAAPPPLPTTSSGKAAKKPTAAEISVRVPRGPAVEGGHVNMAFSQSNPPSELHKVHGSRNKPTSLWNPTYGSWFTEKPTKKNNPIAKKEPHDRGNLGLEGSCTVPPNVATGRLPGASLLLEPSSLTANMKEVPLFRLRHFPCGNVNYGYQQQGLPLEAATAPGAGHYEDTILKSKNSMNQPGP
T1 sequence (P23458 849-1154): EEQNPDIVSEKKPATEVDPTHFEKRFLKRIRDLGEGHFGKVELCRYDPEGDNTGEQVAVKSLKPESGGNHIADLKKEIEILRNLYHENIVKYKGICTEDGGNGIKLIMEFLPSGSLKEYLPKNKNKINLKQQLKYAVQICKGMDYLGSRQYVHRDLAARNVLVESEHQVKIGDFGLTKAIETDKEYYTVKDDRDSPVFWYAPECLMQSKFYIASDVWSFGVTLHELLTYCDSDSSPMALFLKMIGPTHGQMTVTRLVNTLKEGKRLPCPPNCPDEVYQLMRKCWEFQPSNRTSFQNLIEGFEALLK
Chain of TYK2 (P29597 whole entry): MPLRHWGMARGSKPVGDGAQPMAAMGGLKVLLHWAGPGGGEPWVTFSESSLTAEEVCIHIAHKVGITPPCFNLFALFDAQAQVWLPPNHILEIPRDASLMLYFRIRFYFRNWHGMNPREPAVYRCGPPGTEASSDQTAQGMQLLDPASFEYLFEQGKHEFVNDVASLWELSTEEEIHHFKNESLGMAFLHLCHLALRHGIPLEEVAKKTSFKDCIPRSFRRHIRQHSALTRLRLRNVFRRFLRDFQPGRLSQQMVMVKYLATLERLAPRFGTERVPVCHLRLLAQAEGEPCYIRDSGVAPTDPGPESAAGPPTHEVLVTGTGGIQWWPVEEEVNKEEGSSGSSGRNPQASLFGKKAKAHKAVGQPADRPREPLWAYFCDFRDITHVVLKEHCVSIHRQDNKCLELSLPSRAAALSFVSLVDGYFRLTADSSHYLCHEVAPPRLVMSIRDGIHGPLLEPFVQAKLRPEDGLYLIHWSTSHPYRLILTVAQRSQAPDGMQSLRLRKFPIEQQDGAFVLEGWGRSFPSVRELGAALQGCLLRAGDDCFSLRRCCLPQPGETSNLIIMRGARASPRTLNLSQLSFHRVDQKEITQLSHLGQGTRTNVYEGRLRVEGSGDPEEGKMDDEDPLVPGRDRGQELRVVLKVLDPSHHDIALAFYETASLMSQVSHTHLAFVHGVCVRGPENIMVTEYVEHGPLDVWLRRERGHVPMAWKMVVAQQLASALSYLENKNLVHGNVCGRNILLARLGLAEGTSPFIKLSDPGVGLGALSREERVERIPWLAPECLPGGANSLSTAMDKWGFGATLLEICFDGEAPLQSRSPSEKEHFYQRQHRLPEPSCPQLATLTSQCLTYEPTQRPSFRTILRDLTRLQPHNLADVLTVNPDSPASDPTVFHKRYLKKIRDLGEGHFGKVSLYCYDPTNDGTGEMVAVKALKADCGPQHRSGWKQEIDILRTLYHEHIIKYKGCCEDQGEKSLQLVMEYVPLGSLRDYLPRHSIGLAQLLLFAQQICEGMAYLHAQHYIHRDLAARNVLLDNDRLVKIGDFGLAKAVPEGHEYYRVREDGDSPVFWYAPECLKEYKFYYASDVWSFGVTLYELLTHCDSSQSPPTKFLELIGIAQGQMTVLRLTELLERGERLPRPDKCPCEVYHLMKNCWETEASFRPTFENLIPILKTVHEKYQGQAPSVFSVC
T3 sequence (P52333 781-1124): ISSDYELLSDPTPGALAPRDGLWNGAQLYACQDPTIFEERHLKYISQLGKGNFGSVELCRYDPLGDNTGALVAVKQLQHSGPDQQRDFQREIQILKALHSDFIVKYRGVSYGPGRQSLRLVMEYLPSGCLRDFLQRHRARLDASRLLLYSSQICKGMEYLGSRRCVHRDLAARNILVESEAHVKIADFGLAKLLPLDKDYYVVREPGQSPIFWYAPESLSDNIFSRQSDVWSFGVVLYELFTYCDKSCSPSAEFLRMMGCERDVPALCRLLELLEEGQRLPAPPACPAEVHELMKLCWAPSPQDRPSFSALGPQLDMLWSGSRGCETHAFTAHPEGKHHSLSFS

For `Clc1cnc2nc1Nc1cccc(c1)SSc1cccc(c1)N2` [Example D12, 6-Chloro-14,15-dithia-2,4,8,22-tetraazatetracyclo[14.3.1.1(3,7).1(9,13)]docosa-1(20),3(22),4,6,9(21),10,12,16,18-nonaene trifluoroacetate], the IC50 (commonly the midpoint of a concentration-inhibition curve) was 178 nM in assay [1]; 290 nM in assay [2]; 369 nM in assay [3]; 324 nM in assay [4]; over 10000 nM in assay [5].
For the molecule `[O-][S+]1CCOc2cccc(c2)Nc2ncc(Cl)c(n2)Nc2cccc1c2` (stereo not drawn) [Example D13, 6-Chloro-17-oxa-14-thia-2,4,8,24-tetraazatetracyclo[16.3.1.1(3,7).1(9,13)]tetracosa-1(22),3(24),4,6,9(23),10,12,18,20-nonaene 14-oxide trifluoroacetate], the IC50 in assay [1] was 3.6 nM; in assay [2], 2.1 nM; in assay [3] it was 24 nM; in assay [4], 12 nM; in assay [5], 1740 nM.
Take `O=S1(=O)CCOc2cccc(c2)Nc2ncc(Cl)c(n2)Nc2cccc1c2` [Example D14, 6-Chloro-17-oxa-14-thia-2,4,8,24-tetraazatetracyclo[16.3.1.1(3,7).1(9,13)]tetracosa-1(22),3(24),4,6,9(23),10,12,18,20-nonaene 14,14-dioxide trifluoroacetate]: the half-maximal inhibitory concentration (IC50) in assay [1] amounted to 2.2 nM; in assay [2], 2.2 nM; in assay [3], 11 nM; in assay [4], 5 nM; in assay [5] it was 732 nM.
Turning to `Clc1cnc2nc1Nc1cccc(c1)OCCSc1cccc(c1)N2` [Example D15, 6-Chloro-14-oxa-17-thia-2,4,8,24-tetraazatetracyclo[16.3.1.1(3,7).1(9,13)]tetracosa-1(22),3(24),4,6,9(23),10,12,18,20-nonaene trifluoroacetate], the half-maximal inhibitory concentration (IC50) was 93 nM in assay [1]; 61 nM in assay [2]; 135 nM in assay [3]; 88 nM in assay [4]; over 10000 nM in assay [5].
For `Clc1cnc2nc1Nc1cccc(c1)CNc1cccc(c1)N2` [Example D17, 6-Chloro-2,4,8,15,22-pentaazatetracyclo[14.3.1.1(3,7).1(9,13)]docosa-1(20),3(22),4,6,9(21),10,12,16,18-nonaene bis(trifluoroacetate)], the IC50 was 63 nM in assay [1]; 32 nM in assay [2]; 165 nM in assay [3]; 77 nM in assay [4]; over 1000 nM in assay [5].
The matching figures for `Clc1cnc2nc1Nc1cccc(c1)SCCc1cccc(c1)N2` [Example D18, 6-Chloro-14-thia-2,4,8,23-tetraazatetracyclo[15.3.1.1(3,7).1(9,13)]tricosa-1(21),3(23),4,6,9(22),10,12,17,19-nonaene trifluoroacetate]: 5.4 nM, 6.6 nM, 24 nM, 19 nM and 327 nM.
As for `Clc1cnc2nc1Nc1cccc(c1)CCSc1cccc(c1)N2` [Example D19, 6-Chloro-16-thia-2,4,8,23-tetraazatetracyclo[15.3.1.1(3,7).1(9,13)]tricosa-1(21),3(23),4,6,9(22),10,12,17,19-nonaene hydrochloride], the IC50 in assay [1] was 150 nM; in assay [2], 16 nM; in assay [3], 39 nM; in assay [4], 149 nM; in assay [5], 562 nM.
The matching figures for `Clc1cnc2nc1Nc1cccc(c1)CSCc1cccc(c1)N2` [Example D20, 6-Chloro-15-thia-2,4,8,23-tetraazatetracyclo[15.3.1.1(3,7).1(9,13)]tricosa-1(21),3(23),4,6,9(22),10,12,17,19-nonaene trifluoroacetate]: 41 nM, 32 nM, 88 nM, 102 nM and 598 nM.
Turning to `Clc1cnc2nc1Nc1cccc(c1)COCc1cccc(c1)N2` [Example D21, 6-Chloro-15-oxa-2,4,8,23-tetraazatetracyclo[15.3.1.1(3,7).1(9,13)]tricosa-1(21),3(23),4,6,9(22),10,12,17,19-nonaene trifluoroacetate], the IC50 in assay [1] was 8.1 nM; in assay [2], 13 nM; in assay [3], 45 nM; in assay [4], 27 nM; in assay [5], 984 nM.
On to `Clc1cnc2nc1Nc1cccc(c1)OCCc1cc(Br)cc(c1)N2` [Example D22, 19-Bromo-6-chloro-14-oxa-2,4,8,23-tetraazatetracyclo[15.3.1.1(3,7).1(9,13)]tricosa-1(21),3(23),4,6,9(22),10,12,17,19-nonaene trifluoroacetate], for which the half-maximal inhibitory concentration (IC50) in assay [1] is 4.2 nM; in assay [2], 7.9 nM; in assay [3], 41 nM; in assay [4] it was 28 nM; in assay [5] it was 489 nM.
The matching figures for `O=S1(=O)CCc2cccc(c2)Nc2ncc(Cl)c(n2)Nc2cccc1c2` [Example D24, 6-chloro-14-thia-2,4,8,23-tetraazatetracyclo[15.3.1.1(3,7).1(9,13)]tricosa-1(21),3(23),4,6,9(22),10,12,17,19-nonaene 14,14-dioxide trifluoroacetate]: 5 nM, 6 nM, 20 nM, 16 nM and 1370 nM.
The matching figures for `Clc1cnc2nc1Nc1cccc(c1)OCCc1cc(cc(-c3ccncc3)c1)N2` [Example D25, 6-Chloro-19-pyridin-4-yl-14-oxa-2,4,8,23-tetraazatetracyclo[15.3.1.1(3,7).1(9,13)]tricosa-1(21),3(23),4,6,9(22),10,12,17,19-nonaene bis(trifluoroacetate)]: 1.1 nM, 0.3 nM, 8.8 nM, 2.1 nM and 110 nM.
For the molecule `Clc1cnc2nc1Nc1cccc(c1)OCCc1cc(cc(-c3cccnc3)c1)N2` [Example D26, 6-Chloro-19-pyridin-3-yl-14-oxa-2,4,8,23-tetraazatetracyclo[15.3.1.1(3,7).1(9,13)]tricosa-1(21),3(23),4,6,9(22),10,12,17,19-nonaene bis(trifluoroacetate)], the IC50 in assay [1] worked out at 1.2 nM; in assay [2] it was 0.6 nM; in assay [3] it was 8.5 nM; in assay [4], 2.7 nM; in assay [5], 138 nM.
Regarding `Clc1cnc2nc1Nc1cccc(c1)OCCc1cc(cc(-c3ccnc(N4CCNCC4)c3)c1)N2` [Example D27, 6-Chloro-19-(2-piperazin-1-ylpyridin-4-yl)-14-oxa-2,4,8,23-tetraazatetracyclo[15.3.1.1(3,7).1(9,13)]tricosa-1(21),3(23),4,6,9(22),10,12,17,19-nonaene tris(trifluoroacetate)], the IC50 in assay [1] was determined as 1.5 nM; in assay [2], 0.3 nM; in assay [3] it was 3.5 nM; in assay [4], 3.9 nM; in assay [5], 32 nM.
The matching figures for `Clc1cnc2nc1Nc1cccc(c1)OCCc1cc(cc(-c3ccccc3)c1)N2` [Example D28, 6-Chloro-19-phenyl-14-oxa-2,4,8,23-tetraazatetracyclo[15.3.1.1(3,7).1(9,13)]tricosa-1(21),3(23),4,6,9(22),10,12,17,19-nonaene trifluoroacetate]: 6.2 nM, 5.2 nM, 53 nM, 25 nM and 525 nM.
Regarding `CS(=O)(=O)c1ccc(-c2cc3cc(c2)Nc2ncc(Cl)c(n2)Nc2cccc(c2)OCC3)cc1` [Example D29, 6-Chloro-19-[4-(methylsulfonyl)phenyl]-14-oxa-2,4,8,23-tetraazatetracyclo[15.3.1.1(3,7).1(9,13)]tricosa-1(21),3(23),4,6,9(22),10,12,17,19-nonaene trifluoroacetate], the IC50 in assay [1] was found to be 2 nM; in assay [2], 0.5 nM; in assay [3] it was 14 nM; in assay [4] it was 3.4 nM; in assay [5], 238 nM.
Turning to `Cc1n[nH]c(C)c1-c1cc2cc(c1)Nc1ncc(Cl)c(n1)Nc1cccc(c1)OCC2` [Example D30, 6-Chloro-19-(3,5-dimethyl-1H-pyrazol-4-yl)-14-oxa-2,4,8,23-tetraazatetracyclo[15.3.1.1(3,7).1(9,13)]tricosa-1(21),3(23),4,6,9(22),10,12,17,19-nonaene bis(trifluoroacetate)], the IC50 in assay [1] turned out to be 4.1 nM; in assay [2] it was 0.6 nM; in assay [3], 49 nM; in assay [4], 15 nM; in assay [5], 157 nM.
The matching figures for `Clc1cnc2nc1Nc1cccc(c1)OCCc1cc(cc(-c3cnc(N4CCNCC4)nc3)c1)N2` [Example D31, 6-Chloro-19-(2-piperazin-1-ylpyrimidin-5-yl)-14-oxa-2,4,8,23-tetraazatetracyclo[15.3.1.1(3,7).1(9,13)]tricosa-1(21),3(23),4,6,9(22),10,12,17,19-nonaene tris(trifluoroacetate)]: 0.9 nM, 0.2 nM, 6.7 nM, 2 nM and 104 nM.
